Columns and labels:
Type in all cases: cell-based
[1] = tested on: HCT116 FOP control reporter cell line; assay: HCT116 FOP control vector reporter assay (non-functional TCF elements); conditions: Homo sapiens, HCT-116, 36 h, HCT116 FOP control reporter cells, luciferase expression, 36 hours incubation, 50 μM to 15 nM; read-out: HCT116 FOPFlash IC50
Summary of the method: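 Stable HCT116 line carrying the non-functional FOP luciferase construct, 10000 cells/well plated 24 hrs before. Compounds 50 μM to 15 nM (3.16-fold steps) in CAFTY buffer pH 7.4 with 2 mM Ca2+, 36 hours at 37° C; luciferase luminescence read.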

[2] = tested on: constitutive active colorectal cancer cell (CRC) Wnt pathway; assay: HCT116 Super TopFlash cellular reporter assay (constitutive active Wnt pathway); conditions: Homo sapiens, HCT-116, 36 h, HCT116 TOP reporter cells, luciferase expression, 36 hours incubation, 50 μM to 15 nM
Summary of the method: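 HCT116 cells (β-catenin ΔS45) stably carrying Super TopFlash, with a parallel FOP-control line, were plated 24 h ahead. They were exposed 36 h at 37 °C, 5% CO2 to compound from a 50 μM–15 nM, 3.16-fold pre-dilution series in CAFTY buffer (pH 7.4, 2 mM Ca2+, 0.01% BSA). Wnt signalling was read as luciferase luminescence.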

wildtype Wnt pathway = assay: HEK293 Super TopFlash cellular reporter assay, Wnt-3a stimulated (wildtype Wnt pathway); conditions: Homo sapiens; HEK293 TOP reporter cells, EC50 concentration of recombinant Wnt-3a, 16 hours incubation; read-out: HEK TOP OncoFlash IC50
Procedure: (§1) In order to determine the inhibitory activity of compounds for the WT Wnt signaling pathway, the Super TopFlash vector respectively FOP vector were cotransfected with pcDNA3 into HEK293 and stable transfected HEK293 cells were isolated by antibiotic selection. […] The recombinant human Wnt-3a was thereby used between 2500 and 5 ng/ml in two-fold dilution steps. […] Measurement of luciferase expression was done as described for the constitutive active Wnt assay.
In order to discover and characterize small molecules which inhibit the wildtype Wnt pathway, a cellular reporter assay was employed. The corresponding assay cell was generated by transfection of the mammalian cell line HEK293 (ATCC, #CRL-1573) with the Super TopFlash vector (Morin, Science 275, 1997, 1787-1790; Molenaar et al., Cell 86 (3), 1996, 391-399). The HEK293 cell line is cultivated at 37° C. and 5% CO2 in DMEM (Life Technologies, #41965-039), supplemented with 2 mM glutamine, 20 mM HEPES, 1.4 mM pyruvate, 0.15% Na-bicarbonate and 10% foetal bovine serum (GIBCO, #10270). Stable transfectants were generated by selection with 300 μg/ml Hygromycin.
(§2) In preparation of the assay, the two cell lines were plated 24 hours before beginning the test at 10000 cells per well in a 384 micro titre plate (MTP) in […] growth medium. […] The recombinant human Wnt-3a was thereby applied between 2500 and 5 ng/ml in two-fold dilution steps. Selective inhibitory activity for small molecules on the wildtype Wnt pathway was determined after parallel incubation of both (TOP and FOP) HEK293 reporter cell lines with a compound dilution series from 50 μM to 15 nM in steps of 3.16-fold dilutions in CAFTY buffer (130 mM NaCl, 5 mM KCl, 20 mM HEPES, 1 mM MgCl2, 5 mM NaHCO3, pH 7.4) containing 2 mM Ca^2+ and 0.01% BSA.
(§3) The compounds were thereby serially prediluted in 100% DMSO and thereafter 50 fold into the CAFTY compound dilution buffer (described above).

[3] = tested on: HEK293 FOP control reporter cell line; assay: HEK293 FOP control vector reporter assay; conditions: Homo sapiens; HEK293 FOP control reporter cells, EC50 concentration of recombinant Wnt-3a, 16 hours incubation; read-out: HEK FOP IC50
Procedure: as §1
In a parallel approach, HEK293 cells were cotransfected with the FOP control vector and pcDNA3. The FOP vector is identical to the TOP construct, but it contains instead of functional TCF elements a randomized, non-functional sequence. For this transfection a stable transfected cell line was generated as well, based on selection with Geneticin (1 mg/ml).
as §2, §3

SMILES	IC50 [1] [µM]	IC50 [2] [µM]	IC50 (wildtype Wnt pathway) [µM]	IC50 [3] [µM]
COc1ccc(NC(=O)c2ccc(-c3ccccc3)cc2)cc1NC(=O)CN1C[C@@H]2C[C@H]1CO2 [Example 33, N-(4-methoxy-3-{[(1S,4S)-2-oxa-5-azabicyclo[2.2.1]hept-5-ylacetyl]amino}phenyl)biphenyl-4-carboxamide]	≥ 50	0.435	0.4	9
COc1ccc(NC(=O)c2ccc(-c3ccccc3)cc2)cc1NC(=O)CN1CCSCC1 [Example 37, N-{4-methoxy-3-[(thiomorpholin-4-ylacetyl)amino]phenyl}biphenyl-4-carboxamide]	≥ 50	1.25	0.64	≥ 50
COc1ccc(NC(=O)c2ccc(-c3ccccc3)cc2)cc1NC(=O)CN1CCC(OC)CC1 [Example 39, N-(4-methoxy-3-{[(4-methoxypiperidin-1-yl)acetyl]amino}phenyl)biphenyl-4-carboxamide]	≥ 50	2.2	1.1	≥ 50
COc1ccc(NC(=O)c2ccc(-c3ccccc3)cc2)cc1NC(=O)CN1CCOC(C)(C)C1 [Example 41, N-(3-{[(2,2-dimethylmorpholin-4-yl)acetyl]amino}-4-methoxyphenyl)biphenyl-4-carboxamide]	≥ 50	2.4	0.71	≥ 50
COc1ccc(NC(=O)c2ccc(-c3ccccc3)cc2)cc1NC(=O)CN1CC[C@@H](O)C1 [Example 43, N-[3-({[(3R)-3-hydroxypyrrolidin-1-yl]acetyl}amino)-4-methoxyphenyl]biphenyl-4-carboxamide]	≥ 50	2.65	1.2	≥ 50
COc1ccc(NC(=O)c2ccc(-c3ccccc3)cc2)cc1NC(=O)[C@H](C)N1CC2CCC(C1)O2 [Example 56, N-(4-methoxy-3-{[(2S)-2-(8-oxa-3-azabicyclo[3.2.1]oct-3-yl)propanoyl]amino}phenyl)biphenyl-4-carboxamide]	≥ 50	0.222	4	≥ 50
C[C@@H](C(=O)Nc1cc(NC(=O)c2ccc(-c3ccccc3)cc2)ccc1OC(F)(F)F)N1CC2CCC(C1)O2 [Example 59, N-[3-{[(2S)-2-(8-oxa-3-azabicyclo[3.2.1]oct-3-yl)propanoyl]amino}-4-(trifluoromethoxy)phenyl]biphenyl-4-carboxamide]	40	0.111	1.7	≥ 50
C[C@@H](C(=O)Nc1cc(NC(=O)c2ccc(-c3ccccc3)cc2)ccc1OC(F)(F)F)N1CCOCC1 [Example 62, N-[3-{[(2S)-2-(morpholin-4-yl)propanoyl]amino}-4-(trifluoromethoxy)phenyl]biphenyl-4-carboxamide]	≥ 50	0.061	0.055	8
COc1ccc(NC(=O)c2ccc(-c3cccc(C)c3)cc2)cc1NC(=O)CN1CCOCC1 [Example 71, N-{4-methoxy-3-[(morpholin-4-ylacetyl)amino]phenyl}-3′-methylbiphenyl-4-carboxamide]	≥ 50	2.25	2.5	25
COc1ccc(NC(=O)c2ccc(-c3cccc(C#N)c3)cc2)cc1NC(=O)CN1CCOCC1 [Example 72, 3′-cyano-N-{4-methoxy-3-[(morpholin-4-ylacetyl)amino]phenyl}biphenyl-4-carboxamide]	≥ 50	3.75	1.3	≥ 50

Second part, led by results:

IC50 [1] [µM]	IC50 [2] [µM]	IC50 (wildtype Wnt pathway) [µM]	SMILES	IC50 [3] [µM]
≥ 50	1.18	0.92	COc1ccc(NC(=O)c2ccc(-c3ccccc3)cc2)cc1NC(=O)CN1CCN(C2CC2)CC1 [Example 35, N-(3-{[(4-cyclopropylpiperazin-1-yl)acetyl]amino}-4-methoxyphenyl)biphenyl-4-carboxamide]	29
≥ 50	1.55	0.82	COc1ccc(NC(=O)c2ccc(-c3ccccc3)cc2)cc1NC(=O)CN1CCCOCC1 [Example 36, N-{4-methoxy-3-[(1,4-oxazepan-4-ylacetyl)amino]phenyl}biphenyl-4-carboxamide]	9.9
≥ 50	2.3	0.046	COc1ccc(NC(=O)c2ccc(-c3ccccc3)cc2)cc1NC(=O)CN1CCC[C@H](O)C1 [Example 40, N-[3-({[(3S)-3-hydroxypiperidin-1-yl]acetyl}amino)-4-methoxyphenyl]biphenyl-4-carboxamide]	12
12	0.856	2.8	COc1ccc(NC(=O)c2ccc(-c3ccccc3)cc2)cc1NC(=O)CN1CCOC[C@@H]1C [Example 48, N-[4-methoxy-3-({[(3S)-3-methylmorpholin-4-yl]acetyl}amino)phenyl]biphenyl-4-carboxamide]	≥ 50
≥ 50	0.48	0.29	COc1ccc(NC(=O)c2ccc(-c3ccccc3)cc2)cc1NC(=O)C(C)N1CCOCC1 (stereo not drawn) [Example 53, N-(4-methoxy-3-{[2-(morpholin-4-yl)propanoyl]amino}phenyl)biphenyl-4-carboxamide]	6.2
≥ 50	0.054	2.2	CC(C(=O)Nc1cc(NC(=O)c2ccc(-c3ccccc3)cc2)ccc1OC(F)(F)F)N1CC2CCC(C1)O2 (stereo not drawn) [Example 58, N-[3-{[2-(8-oxa-3-azabicyclo[3.2.1]oct-3-yl)propanoyl]amino}-4-(trifluoromethoxy)phenyl]biphenyl-4-carboxamide]	35
≥ 50	0.13	0.14	CC(C(=O)Nc1cc(NC(=O)c2ccc(-c3ccccc3)cc2)ccc1OC(F)(F)F)N1CCOCC1 (stereo not drawn) [Example 61, N-[3-{[2-(morpholin-4-yl)propanoyl]amino}-4-(trifluoromethoxy)phenyl]biphenyl-4-carboxamide]	≥ 50
≥ 50	0.0392	1.6	O=C(CN1CCOCC1)Nc1cc(NC(=O)c2ccc(-c3ccccc3)cc2)ccc1OC(F)(F)F [Example 66, N-{3-[(morpholin-4-ylacetyl)amino]-4-(trifluoromethoxy)phenyl}biphenyl-4-carboxamide]	≥ 50
≥ 50	1.45	1.5	COc1ccc(NC(=O)c2ccc(-c3cccc(Cl)c3)cc2)cc1NC(=O)CN1CCOCC1 [Example 73, 3′-chloro-N-{4-methoxy-3-[(morpholin-4-ylacetyl)amino]phenyl}biphenyl-4-carboxamide]	32
≥ 50	0.047	0.14	O=C(CN1CCOCC1)Nc1cc(NC(=O)c2ccc(-c3cccc(F)c3)cc2)ccc1OC(F)(F)F [Example 74, 3′-fluoro-N-{3-[(morpholin-4-ylacetyl)amino]-4-(trifluoromethoxy)phenyl}biphenyl-4-carboxamide]	8.3
≥ 50	0.145	0.85	O=C(CN1CCOCC1)Nc1cc(NC(=O)c2ccc(-c3ccc(F)cc3)cc2)ccc1OC(F)(F)F [Example 75, 4′-fluoro-N-{3-[(morpholin-4-ylacetyl)amino]-4-(trifluoromethoxy)phenyl}biphenyl-4-carboxamide]	40

— patent US20160052898A1, “NOVEL COMPOUNDS” (BAYER PHARMA AKTIENGESELLSCHAFT, priority 2013, published 2016)
